Laboratory results from article PMC8213057, “Targeting ALK2: An Open Science Approach to Developing Therapeutics for the Treatment of Diffuse Intrinsic Pontine Glioma” (Journal of Medicinal Chemistry, 2020).

What was measured:
EPHA3 = target: T1, EPHA3 (Homo sapiens, UniProt P29320); assay: biochemical; settings: read-out: % enzyme activity, 1 μM; Run 1, Run 2
T1 sequence (P29320 21-983): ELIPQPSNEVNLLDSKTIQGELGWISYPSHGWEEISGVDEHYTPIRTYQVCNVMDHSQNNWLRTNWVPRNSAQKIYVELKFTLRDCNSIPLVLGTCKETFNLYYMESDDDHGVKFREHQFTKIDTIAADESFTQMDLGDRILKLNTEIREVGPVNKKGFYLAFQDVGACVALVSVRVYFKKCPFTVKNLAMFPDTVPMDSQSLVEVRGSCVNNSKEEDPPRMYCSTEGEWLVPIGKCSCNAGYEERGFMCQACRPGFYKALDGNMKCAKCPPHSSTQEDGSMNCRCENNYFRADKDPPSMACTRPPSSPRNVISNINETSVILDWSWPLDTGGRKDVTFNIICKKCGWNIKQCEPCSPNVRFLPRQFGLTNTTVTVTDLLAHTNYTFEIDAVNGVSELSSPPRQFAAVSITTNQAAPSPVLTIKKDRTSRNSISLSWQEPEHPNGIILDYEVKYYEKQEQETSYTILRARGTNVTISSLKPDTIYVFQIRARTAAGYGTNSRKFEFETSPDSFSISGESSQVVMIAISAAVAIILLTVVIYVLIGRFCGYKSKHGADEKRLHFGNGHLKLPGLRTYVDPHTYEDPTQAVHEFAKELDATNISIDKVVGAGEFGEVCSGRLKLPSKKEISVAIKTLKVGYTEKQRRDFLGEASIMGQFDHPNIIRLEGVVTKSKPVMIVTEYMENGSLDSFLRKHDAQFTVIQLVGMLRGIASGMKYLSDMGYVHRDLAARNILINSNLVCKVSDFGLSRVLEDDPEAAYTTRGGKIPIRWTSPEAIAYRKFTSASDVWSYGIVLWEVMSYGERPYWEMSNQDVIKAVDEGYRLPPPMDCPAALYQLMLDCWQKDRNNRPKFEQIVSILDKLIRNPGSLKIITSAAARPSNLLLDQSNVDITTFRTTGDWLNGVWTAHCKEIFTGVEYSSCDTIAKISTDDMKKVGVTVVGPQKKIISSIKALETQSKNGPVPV

RAF1 = RAF1 (Homo sapiens, UniProt P04049); assay: biochemical; settings: read-out: % enzyme activity, 1 μM; Run 1, Run 2
CDK6/cyclin D1 = CDK6/cyclin D1 (Homo sapiens, UniProt Q00534); assay: biochemical; settings: read-out: % enzyme activity, 1 μM; Run 1, Run 2
SGK3/SGKL = target: T2, SGK3/SGKL (Homo sapiens, UniProt Q96BR1); settings: 1 μM; Run 1, Run 2
T2 sequence (Q96BR1 1-496): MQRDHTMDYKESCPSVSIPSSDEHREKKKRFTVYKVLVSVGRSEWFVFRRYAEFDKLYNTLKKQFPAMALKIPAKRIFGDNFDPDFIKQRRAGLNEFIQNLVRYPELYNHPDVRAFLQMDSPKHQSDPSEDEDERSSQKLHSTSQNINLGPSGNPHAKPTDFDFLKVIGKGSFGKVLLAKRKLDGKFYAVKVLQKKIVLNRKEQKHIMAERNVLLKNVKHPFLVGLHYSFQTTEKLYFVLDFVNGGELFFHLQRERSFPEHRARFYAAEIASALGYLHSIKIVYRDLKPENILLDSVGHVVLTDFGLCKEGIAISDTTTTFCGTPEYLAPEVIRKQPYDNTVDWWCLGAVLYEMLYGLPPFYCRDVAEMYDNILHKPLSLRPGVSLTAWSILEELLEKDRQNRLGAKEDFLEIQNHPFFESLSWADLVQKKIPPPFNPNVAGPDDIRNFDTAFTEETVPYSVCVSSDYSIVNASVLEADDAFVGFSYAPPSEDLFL

TAOK2/TAO1 = target: T3, TAOK2/TAO1 (Homo sapiens, UniProt Q9UL54); assay: biochemical; settings: read-out: % enzyme activity, 1 μM; Run 1, Run 2
T3 sequence (Q9UL54 1-1235): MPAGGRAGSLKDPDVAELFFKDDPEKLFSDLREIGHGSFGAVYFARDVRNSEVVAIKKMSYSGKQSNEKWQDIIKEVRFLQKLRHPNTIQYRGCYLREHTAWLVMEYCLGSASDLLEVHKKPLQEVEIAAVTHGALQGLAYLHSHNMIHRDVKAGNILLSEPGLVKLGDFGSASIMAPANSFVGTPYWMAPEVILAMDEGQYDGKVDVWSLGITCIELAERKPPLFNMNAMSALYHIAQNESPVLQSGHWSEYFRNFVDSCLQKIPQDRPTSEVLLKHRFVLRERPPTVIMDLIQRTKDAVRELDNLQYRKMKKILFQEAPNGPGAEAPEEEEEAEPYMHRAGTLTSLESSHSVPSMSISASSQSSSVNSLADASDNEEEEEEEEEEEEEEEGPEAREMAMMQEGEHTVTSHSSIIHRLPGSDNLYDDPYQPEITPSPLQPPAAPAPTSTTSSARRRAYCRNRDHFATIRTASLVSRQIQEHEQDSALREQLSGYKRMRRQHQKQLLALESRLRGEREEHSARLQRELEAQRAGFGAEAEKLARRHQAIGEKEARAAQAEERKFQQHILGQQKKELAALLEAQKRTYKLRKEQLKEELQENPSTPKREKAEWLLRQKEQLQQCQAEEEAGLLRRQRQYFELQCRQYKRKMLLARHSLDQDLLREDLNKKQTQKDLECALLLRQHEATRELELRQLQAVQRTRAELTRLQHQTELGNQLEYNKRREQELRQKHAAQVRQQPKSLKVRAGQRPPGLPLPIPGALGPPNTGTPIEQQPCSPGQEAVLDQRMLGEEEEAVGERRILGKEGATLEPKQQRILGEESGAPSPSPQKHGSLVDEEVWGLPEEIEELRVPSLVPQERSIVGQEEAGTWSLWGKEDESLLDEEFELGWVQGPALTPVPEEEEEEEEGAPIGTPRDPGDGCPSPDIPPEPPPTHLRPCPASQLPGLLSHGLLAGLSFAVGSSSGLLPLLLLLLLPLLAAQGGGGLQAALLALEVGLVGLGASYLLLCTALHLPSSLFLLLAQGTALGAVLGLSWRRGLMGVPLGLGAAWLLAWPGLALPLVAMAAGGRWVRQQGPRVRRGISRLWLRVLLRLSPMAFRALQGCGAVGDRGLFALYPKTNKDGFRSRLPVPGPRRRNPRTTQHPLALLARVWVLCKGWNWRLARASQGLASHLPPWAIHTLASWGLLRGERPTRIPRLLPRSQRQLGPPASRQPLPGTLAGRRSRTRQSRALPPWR

CDK6/cyclin D1, sequence (Q00534 whole entry): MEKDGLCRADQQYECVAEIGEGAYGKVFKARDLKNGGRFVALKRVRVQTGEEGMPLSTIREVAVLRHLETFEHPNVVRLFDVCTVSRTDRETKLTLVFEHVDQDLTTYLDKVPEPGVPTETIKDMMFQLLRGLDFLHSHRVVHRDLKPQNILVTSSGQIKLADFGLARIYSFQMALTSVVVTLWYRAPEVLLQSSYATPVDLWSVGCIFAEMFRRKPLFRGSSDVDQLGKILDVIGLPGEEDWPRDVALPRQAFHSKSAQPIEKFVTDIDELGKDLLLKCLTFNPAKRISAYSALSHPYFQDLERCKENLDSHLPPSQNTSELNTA
CDK6/cyclin D1, sequence (P24385 whole entry partner): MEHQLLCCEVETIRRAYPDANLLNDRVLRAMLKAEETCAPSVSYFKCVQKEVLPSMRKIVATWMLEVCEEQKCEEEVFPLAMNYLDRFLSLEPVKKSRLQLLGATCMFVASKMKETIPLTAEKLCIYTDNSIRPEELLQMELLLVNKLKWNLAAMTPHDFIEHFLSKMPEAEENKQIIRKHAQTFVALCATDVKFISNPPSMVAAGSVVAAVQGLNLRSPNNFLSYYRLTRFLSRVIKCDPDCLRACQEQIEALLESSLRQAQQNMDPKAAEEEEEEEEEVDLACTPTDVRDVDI
RAF1, sequence (P04049 whole entry): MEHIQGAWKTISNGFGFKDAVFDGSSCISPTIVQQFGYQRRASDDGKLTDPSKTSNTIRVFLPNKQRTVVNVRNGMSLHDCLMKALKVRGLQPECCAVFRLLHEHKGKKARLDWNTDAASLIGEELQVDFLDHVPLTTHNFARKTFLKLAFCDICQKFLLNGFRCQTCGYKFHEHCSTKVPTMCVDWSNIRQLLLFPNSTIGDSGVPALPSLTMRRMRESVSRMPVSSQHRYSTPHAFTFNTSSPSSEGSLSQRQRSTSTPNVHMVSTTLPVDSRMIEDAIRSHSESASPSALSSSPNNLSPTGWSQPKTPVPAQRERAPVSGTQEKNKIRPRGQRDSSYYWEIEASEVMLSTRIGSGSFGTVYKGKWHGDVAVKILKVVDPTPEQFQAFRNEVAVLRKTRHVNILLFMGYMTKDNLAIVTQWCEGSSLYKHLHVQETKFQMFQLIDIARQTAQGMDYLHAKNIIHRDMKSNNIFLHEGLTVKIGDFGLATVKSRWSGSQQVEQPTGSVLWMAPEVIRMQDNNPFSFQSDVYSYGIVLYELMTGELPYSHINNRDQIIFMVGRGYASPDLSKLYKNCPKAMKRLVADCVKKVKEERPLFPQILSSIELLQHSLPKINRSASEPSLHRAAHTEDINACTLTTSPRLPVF

Row | Compound | remaining activity at 1 µM (EPHA3) [%] | remaining activity at 1 µM (RAF1) [%] | remaining activity at 1 µM (CDK6/cyclin D1) [%] | % enzyme activity (SGK3/SGKL) [%] | remaining activity at 1 µM (TAOK2/TAO1) [%]
1 | COc1cc(-c2cncc(-c3ccc(N4CCN(C)CC4)cc3)c2C)cc(F)c1C(N)=O [Compound 26a, 2-Fluoro-6-methoxy-4-(4-methyl-5-(4-(4-methylpiperazin-1-yl)phenyl)pyridin-3-yl)benzamide] | 95.7 | 78.7 | 100 | 99.35 | 88.6
2 | COc1cc(-c2cncc(-c3ccc(N4C[C@@H](C)N(C)[C@@H](C)C4)cc3)c2C)cc(F)c1C(N)=O [Compound 26c, 2-Fluoro-6-methoxy-4-(4-methyl-5-(4-((3R,5S)-3,4,5-trimethylpiperazin-1-yl)phenyl)pyridin-3-yl)benzamide] | 101 | 85.5 | 95.9 | 93.33 | 101
